Where “and” joins values, the source holds several entries; their conditions need not be identical. Equal values may be shown once.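 Step 1: Grow cells in 96-well plates. Step 2: Expose to compound for 48 hours at 5 concentrations. Step 3: Interpolate endpoints linearly; if unreached, use highest concentration. Abbreviation: GI50, concentration required for 50% inhibition of growth. TGI denotes the concentration required for complete inhibition of growth.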
Legend:
Assay in all cases: DTP human tumour cell line panel, 48 h
DU-145 prostate = tested on: DU-145 prostate
HL-60(TB) leukemia = tested on: HL-60(TB) leukemia
A498 renal = tested on: A498 renal
U251 CNS = tested on: U251 CNS
NCI-H522 lung = tested on: NCI-H522 lung
CAKI-1 renal = tested on: CAKI-1 renal
SF-295 CNS = tested on: SF-295 CNS
NCI/ADR-RES ovarian = tested on: NCI/ADR-RES ovarian
SNB-19 CNS = tested on: SNB-19 CNS
SK-MEL-28 melanoma = tested on: SK-MEL-28 melanoma

Compound	GI50 (DU-145 prostate)	TGI (DU-145 prostate)	GI50 (HL-60(TB) leukemia)	TGI (HL-60(TB) leukemia)	GI50 (A498 renal)	TGI (A498 renal)	GI50 (U251 CNS)	TGI (U251 CNS)	GI50 (NCI-H522 lung)	TGI (NCI-H522 lung)	GI50 (CAKI-1 renal)	TGI (CAKI-1 renal)	GI50 (SF-295 CNS)	TGI (SF-295 CNS)	GI50 (NCI/ADR-RES ovarian)	TGI (NCI/ADR-RES ovarian)	GI50 (SNB-19 CNS)	TGI (SNB-19 CNS)	GI50 (SK-MEL-28 melanoma)	TGI (SK-MEL-28 melanoma)
CC(C)N(Cc1ccc(F)cc1)c1ccc(CO)c(Cl)c1	11.1 µM	23.3 µM	3.15 µM	21.8 µM	0.0225 µM	0.134 µM	0.37 µM	14.4 µM	11.3 µM	26.7 µM	0.245 µM	2.02 µM	0.25 µM	11.8 µM	10.4 µM	23.8 µM	12.2 µM	25.3 µM	14 µM	27.2 µM
C#CCNC(=O)NC(CCCCNC(=O)OCc1ccccc1)C(=O)OCc1ccccc1 (stereo not given)		> 100 µM		46.7 µM		53.6 µM		> 100 µM		17.1 µM		> 100 µM		> 100 µM		> 100 µM		> 100 µM		38.5 µM
COc1ccc(-c2c3c(N)c4c(nc3nc3c2c(C)nn3-c2ccccc2)CCCC4)cc1	4.72 µM	16.4 µM	2.12 µM	4.3 µM	11.9 µM	27.3 µM	1.72 µM	3.56 µM	2.91 µM	12.2 µM	3.88 µM	15.9 µM	10.1 µM	23.3 µM	3.41 µM	14.2 µM	10.8 µM	26.8 µM	6.75 µM	24.3 µM
N#C/C(=C\c1cc2ccc(N3CCC3)cc2oc1=O)C(=O)N(CC(=O)O)CC(=O)O	> 100 µM	> 100 µM	> 100 µM	> 100 µM	> 100 µM	> 100 µM	> 100 µM	> 100 µM	> 100 µM	> 100 µM	> 100 µM	> 100 µM	> 100 µM	> 100 µM	> 100 µM	> 100 µM	> 100 µM	> 100 µM	> 100 µM	> 100 µM
COc1cc(-c2ncn(/C=C\c3nnco3)n2)cc(C(F)(F)F)c1	0.416 µM	> 100 µM	0.0809 µM	13.1 µM	0.0421 µM	0.619 µM	0.0661 µM	17.6 µM	0.0671 µM	1.61 µM	0.154 µM	> 100 µM	0.08 µM	> 100 µM	0.2 µM	> 100 µM	0.175 µM	> 100 µM	0.125 µM	> 34.6 µM
COc1ccc2c(c1)C(=O)c1c-2c(=O)n(CCCN(C)C)c2cc(OC)c(OC)cc12	0.623 µM	10.9 µM	10.4 µM	31.7 µM	15 µM	> 100 µM	1.23 µM	18.9 µM	4.69 µM	21.6 µM	1.48 µM	> 100 µM	0.158 µM	0.774 µM	5.93 µM	23.6 µM	3.3 µM	20.6 µM	17.9 µM	32 µM
Cc1ccc(-n2c(-c3cc4c([nH]c5ccccc54)c(-c4cccc(O)c4)n3)n[nH]c2=S)cc1	0.616 µM	6.17 µM	1.08 µM	3.43 µM	0.263 µM	0.738 µM	0.371 µM	2.22 µM	0.861 µM	5.27 µM	1.73 µM	4.9 µM	1.11 µM	3.12 µM	4.14 µM	24.1 µM	0.403 µM	3.7 µM	0.628 µM	4.22 µM
COC1=C(OC)C(=O)C(CCCCCCCCCCO)=C(C)C1=O	7.77 µM	22.4 µM	3.71 µM	11.5 µM	13.1 µM	26.6 µM	3.03 µM	12.5 µM	11.2 µM	35.3 µM	4.01 µM	29 µM			3.34 µM	13 µM	14.8 µM	31.3 µM	13.5 µM	26.5 µM
COc1ccc(S(=O)(=O)N2CCNCC2)cc1OC	> 100 µM	> 100 µM	> 100 µM	> 100 µM	> 100 µM	> 100 µM	> 100 µM	> 100 µM	> 100 µM	> 100 µM	> 100 µM	> 100 µM	> 100 µM	> 100 µM	> 100 µM	> 100 µM	> 100 µM	> 100 µM	> 100 µM	> 100 µM
O=S(=O)(NCCCNc1cc(-c2cn(-c3ccccc3)nc2-c2cccc(O)c2)ccn1)c1ccc(F)cc1	4.12 µM	36.7 µM	2.2 µM	5.85 µM	2.49 µM	9.81 µM	2.97 µM	10.3 µM	2.29 µM	7.44 µM	4.56 µM	44.6 µM	1.95 µM	4.09 µM	3.24 µM	22.4 µM	4.67 µM	52.3 µM	2.58 µM	8.27 µM
COc1c(CC=C(C)C)c(O)c(C(CC(C)C)c2c(O)c(CC=C(C)C)c(O)c(C(C)=O)c2O)c(O)c1C(C)=O (stereo not given)		16.5 µM		3.28 µM		1.24 µM		11.2 µM		1.48 µM		11.7 µM		2.28 µM		10.2 µM		15.2 µM		5.21 µM
N#Cc1c(NC(=O)c2ccccc2F)sc2c1CCCC2	> 25 µM	> 25 µM	> 25 µM	> 25 µM	> 16.7 µM	> 25 µM	> 25 µM	> 25 µM	> 12.8 µM	> 25 µM	> 19.4 µM	> 25 µM	> 25 µM	> 25 µM	11.5 µM	> 25 µM	> 25 µM	> 25 µM	> 25 µM	> 25 µM
CC1=NNC(=S)NCCCN2CCN(CCCNC(=S)NN=C(C)C=NNC(=S)NCCCN3CCN(CCCNC(=S)NN=C1)CC3)CC2		> 100 µM		> 100 µM		> 100 µM		> 100 µM		> 100 µM		> 100 µM		> 100 µM		> 100 µM		> 100 µM		> 100 µM
CC1CCN(CCOc2ccc(CNc3ccc4nc(CCC5CCCCC5)[nH]c4c3)cc2)CC1	2.52 µM	6.9 µM	1.83 µM	3.99 µM	1.77 µM	3.7 µM	1.44 µM	2.85 µM	1.82 µM	3.58 µM	1.87 µM	3.34 µM	1.87 µM	3.46 µM	1.81 µM	4.12 µM	2.03 µM	4.2 µM		
c1ccc(CN2COc3c(ccc4c5c(ccc34)CN(Cc3ccccc3)CO5)C2)cc1		> 100 µM		> 100 µM		> 100 µM		> 100 µM		> 100 µM		> 100 µM		> 100 µM		> 100 µM		> 100 µM		> 100 µM
CC(=O)N(O)c1ccc(/C=C/c2ccccc2)cc1	0.278 µM	2.52 µM	1.07 µM	> 100 µM	0.221 µM	0.715 µM	1.23 µM	3.59 µM	3.58 µM	> 41.1 µM	0.543 µM	3.22 µM	0.362 µM	2.78 µM	2.21 µM	44.1 µM	1.88 µM	> 100 µM	9.39 µM	> 100 µM
NC(=O)CC(N)c1nn[nH]n1 (stereo not given)		> 100 µM		> 100 µM		> 100 µM		> 100 µM		> 100 µM		> 100 µM		> 100 µM		> 100 µM		> 100 µM		> 100 µM
COc1c(OC(C)C)cc2cc(O)c(C(=O)NC3Cc4ccc(c(Cl)n4)O[C@@H]4C=C5C#C/C(=C\C#CC6OC56C4OC4CC(C)(O)C(O)C(C)O4)C(OC4CC(O)C(N(C)C)C(C)O4)COC3=O)cc2c1OC (stereo not given in full)		> 36.3 µM	27.5 µM and 0.019 µg/mL	> 36.3 µM and 0.336 µg/mL	0.168 µg/mL	> 36.3 µM and 8.7 µg/mL	5.61 µM and 0.596 µg/mL	> 36.3 µM and 9.98 µg/mL	29.6 µM and 1.25 µg/mL	> 36.3 µM and 15.8 µg/mL	0.897 µg/mL	> 36.3 µM and 37.5 µg/mL	9.97 µM and 0.523 µg/mL	> 36.3 µM and 6.24 µg/mL		> 36.3 µM	17.7 µM and 0.956 µg/mL	> 36.3 µM and 37.5 µg/mL	3.16 µg/mL	> 36.3 µM and 37.5 µg/mL
O=c1[nH]c2ccccc2n1C1CCN(CCCC(c2ccc(F)cc2)c2ccc(F)cc2)CC1	1.73 µM and 13.7 µM	3.24 µM and 28.5 µM	1.82 µM	4.4 µM and 11.9 µM	1.12 µM and 8.77 µM	2.36 µM and 22.7 µM	1.49 µM and 5.24 µM	2.9 µM and 14.1 µM	1.73 µM	3.36 µM and 10.4 µM	1.39 µM and 7.46 µM	2.96 µM and 20.9 µM	1.5 µM	3.02 µM and 14.5 µM	1.46 µM and 3.2 µM	2.96 µM and 13.2 µM	1.67 µM	3.29 µM and 28.8 µM	1.61 µM	2.99 µM and 5.86 µM
O=C1/C(=C/c2ccccc2[N+](=O)[O-])COc2ccc(O)cc21	1.72 µM	4.29 µM	1.76 µM	5.68 µM	1.65 µM	7.24 µM	2.41 µM	8.74 µM	0.684 µM	3.65 µM	1.03 µM	2.91 µM	7.13 µM	25.6 µM	1.99 µM	8.09 µM	4.15 µM	16.6 µM	1.55 µM	3.14 µM
COc1ccc(COc2cc3oc(=O)c4cc(C(C)O)ccc4c3cc2OC)cc1 (stereo not given)	45.5 µM	> 100 µM		> 100 µM	19.2 µM	82.2 µM	10.5 µM	> 71.6 µM	10.1 µM	> 95.3 µM	15.3 µM	> 51.1 µM	11.6 µM	65.5 µM	8.4 µM	44.4 µM	16 µM	99.3 µM	14.3 µM	> 91.7 µM
CN(C)c1nc(N)c(C#N)c(C#N)c1C#N		> 10 µM		> 6.07 µM		> 10 µM		> 10 µM		3.8 µM		> 10 µM		> 10 µM		> 10 µM		> 10 µM		> 10 µM
Nc1nc(-c2ccc(Cl)cc2)nc2c1sc(=S)n2-c1ccccc1	4.36 µM	18.9 µM	> 100 µM	> 100 µM	1.92 µM	5.19 µM	3.5 µM	11.9 µM	5.64 µM	> 100 µM	9.17 µM	84.5 µM	2.72 µM	7.62 µM	3.7 µM	19.8 µM	3.55 µM	10.1 µM	5.22 µM	> 100 µM
Nc1nc2ccccc2c2c1S(=O)(=O)c1ccc(Cl)cc1C2=O	2.13 µM	> 50 µM	1.39 µM	3.7 µM	2.37 µM	22.5 µM	1.79 µM	18.3 µM	0.86 µM	2.2 µM	1.59 µM	> 50 µM	2.22 µM	> 50 µM	1.46 µM	6.27 µM	2.52 µM	> 50 µM	2.09 µM	14.1 µM
Fc1ccc2nc(-c3nc(-c4ccccc4)n4ccccc34)[nH]c2c1	5.56 µM	18.1 µM	14.9 µM	> 100 µM	2.08 µM	6.46 µM	2.22 µM	5.42 µM	2.43 µM	5.6 µM	3.38 µM	15.1 µM			2.23 µM	6.01 µM	2.37 µM	6.22 µM	2.13 µM	5.51 µM
C[C@@H](NC(=O)c1ccc(F)cc1)c1ccc2c(c1)CCN2C(=O)C1CCOCC1	> 100 µM	> 100 µM	> 100 µM	> 100 µM	17.1 µM	88.5 µM	> 100 µM	> 100 µM	> 100 µM	> 100 µM	> 100 µM	> 100 µM	> 100 µM	> 100 µM	> 100 µM	> 100 µM			> 100 µM	> 100 µM
CC(C)(C)c1cc(C(=O)O)c2c(c1)C(=O)OC2(c1ccccc1)c1ccccc1C(=O)O (stereo not given)	> 100 µM	> 100 µM		> 100 µM	> 100 µM	> 100 µM						> 100 µM		> 100 µM	> 100 µM	> 100 µM		> 100 µM		> 100 µM
